Results: ChEMBL document CHEMBL6153056 (Eur J Med Chem, 2025)
Active and inactive are the calls of the source. The rule behind the calls is not given here.

Legend:
[1] = molecular target: CDK9/cyclin T1 (Homo sapiens, UniProt P50750); test: Inhibition of CDK9/cyclin T1 (unknown origin) pre-incubated for 20 min followed by 32P-ATP addition and measured after 2 hrs; assay type: protein-complex assay
[2] = tested on: DU-145; test: Antiproliferative activity against human DU-145 cells incubated for 72 hrs by MTT assay; assay type: functional, cell-based; details: DU-145, 72 h
[3] = Microsomal stability in human liver microsomes assessed as residual activity at 5 uM incubated for 15 min in presence of NADPH generating system by HPLC-MS analysis; assay type: ADME, Microsome; details: read-out: Stability
[4] = Stability of the compound in stimulated gastric fluid pH 1.2 at 5 uM incubated for 30 mins by HPLC-MS analysis; assay type: physicochemical; details: simulated gastric fluid, read-out: Stability
[5] = Apparent permeability of compound across apical to basolateral side in human Caco-2 cells at 10 uM incubated for 2 hrs; assay type: ADME, cell-based
[6] = tested on: DU-145; test: Upregulation of CDK9 expression in human DU-145 cells by Western blot analysis; assay type: functional, cell-based
[7] = Stability in mouse serum at 5 uM measured after 360 mins by HPLC analysis; assay type: ADME, cell-free; details: read-out: Stability
[8] = Drug uptake in human DU-145 cells assessed as increase in green fluorescence in cytoplasm at 1 uM incubated for 2 hrs by live-cell confocal laser scanning microscopy based analysis; assay type: ADME; details: du-145, 2 h
[9] = Drug uptake in human DU-145 cells assessed as increase in green fluorescence in nucleus at 1 uM incubated for 2 hrs by live-cell confocal laser scanning microscopy based analysis; assay type: ADME; details: du-145, 2 h
[10] = tested on: LNCaP; test: Antiproliferative activity against human LNCaP cells incubated for 72 hrs by MTT assay; assay type: functional, cell-based
[11] = tested on: CWR22R; test: Antiproliferative activity against human 22Rv1 cells incubated for 72 hrs by MTT assay; assay type: functional, cell-based; details: 22Rv1, 72 h
[12] = tested on: PC-3; test: Antiproliferative activity against human PC-3 cells incubated for 72 hrs by MTT assay; assay type: functional, cell-based; details: PC-3, 72 h
[13] = tested on: VCaP; test: Antiproliferative activity against human VCaP cells incubated for 72 hrs by MTT assay; assay type: functional, cell-based
[14] = tested on: T47D; test: Antiproliferative activity against human T47D cells incubated for 72 hrs by MTT assay; assay type: functional, cell-based
[15] = tested on: MCF7; test: Antiproliferative activity against human MCF7 cells incubated for 72 hrs by MTT assay; assay type: functional, cell-based; details: MCF7, 72 h
[16] = Half life in BALB/c mouse at 10 mg/kg, ip measured upto 24 hrs by LC-MS/MS analysis; assay type: ADME, organism-based; details: in vivo
[17] = Cmax in BALB/c mouse at 10 mg/kg, ip measured upto 24 hrs by LC-MS/MS analysis; assay type: ADME, organism-based; details: in vivo
[18] = Tmax in BALB/c mouse at 10 mg/kg, ip measured upto 24 hrs by LC-MS/MS analysis; assay type: ADME, organism-based; details: in vivo
[19] = Half life in BALB/c mouse at 2 mg/kg, iv measured upto 24 hrs by LC-MS/MS analysis; assay type: ADME, organism-based; details: in vivo
[20] = Half life in BALB/c mouse at 10 mg/kg, po measured upto 24 hrs by LC-MS/MS analysis; assay type: ADME, organism-based; details: in vivo
[21] = Cmax in BALB/c mouse at 10 mg/kg, po measured upto 24 hrs by LC-MS/MS analysis; assay type: ADME, organism-based; details: in vivo
[22] = Tmax in BALB/c mouse at 10 mg/kg, po measured upto 24 hrs by LC-MS/MS analysis; assay type: ADME, organism-based; details: in vivo
[23] = tested on: DU-145; test: Antitumor activity against human DU-145 cells xenografted in BALB/c mouse model assessed as reduction in tumor volume at 5 mg/kg, ip measured every 12 hrs for 16 days; assay type: functional, organism-based; details: time 16.0 day
[24] = tested on: DU-145; test: Antitumor activity against human DU-145 cells xenografted in BALB/c mouse model assessed as reduction in tumor volume at 10 mg/kg, ip measured every 12 hrs for 16 days; assay type: functional, organism-based; details: time 16.0 day
[25] = Toxicity in BALB/c mouse xenografted with human DU-145 cells assessed as effect on body weight at 5 mg/kg, ip measured every 12 hrs for 16 days; assay type: organism-based; details: in vivo, 384 h, time 16 day
[26] = Toxicity in BALB/c mouse xenografted with human DU-145 cells assessed as effect on body weight at 10 mg/kg, ip measured every 12 hrs for 16 days; assay type: organism-based; details: in vivo, 384 h, time 16 day
[27] = Toxicity in BALB/c mouse assessed as change in alanine transferase (ALT) level in blood at 5 mg/kg, ip measured every 12 hrs for 16 days by biochemical automatic analyzer; assay type: organism-based; details: in vivo, 384 h, time 16 day
[28] = Toxicity in BALB/c mouse assessed as change in aspartate transaminase (AST) level in blood at 5 mg/kg, ip measure every 12 hrs for 16 days by biochemical automatic analyzer; assay type: organism-based; details: in vivo, 384 h, time 16 day
[29] = Toxicity in BALB/c mouse assessed as change in blood urea nitrogen level in blood at 5 mg/kg, ip measured every 12 hrs for 16 days by biochemical automatic analyzer; assay type: organism-based; details: in vivo, 384 h, time 16 day
[30] = Toxicity in BALB/c mouse assessed as change in creatinine level in blood at 5 mg/kg, ip measured every 12 hrs for 16 days by biochemical automatic analyzer; assay type: organism-based; details: in vivo, 384 h, time 16 day
[31] = Toxicity in BALB/c mouse assessed as change in alanine transferase (ALT) level in blood at 10 mg/kg, ip measured every 12 hrs for 16 days by biochemical automatic analyzer; assay type: organism-based; details: in vivo, 384 h, time 16 day
[32] = Toxicity in BALB/c mouse assessed as change in aspartate transaminase (AST) level in blood at 10 mg/kg, ip measure every 12 hrs for 16 days by biochemical automatic analyzer; assay type: organism-based; details: in vivo, 384 h, time 16 day
[33] = Toxicity in BALB/c mouse assessed as change in blood urea nitrogen level in blood at 10 mg/kg, ip measured every 12 hrs for 16 days by biochemical automatic analyzer; assay type: organism-based; details: in vivo, 384 h, time 16 day
[34] = Toxicity in BALB/c mouse assessed as change in creatinine level in blood at 10 mg/kg, ip measured every 12 hrs for 16 days by biochemical automatic analyzer; assay type: organism-based; details: in vivo, 384 h, time 16 day

Sequence of CDK9/cyclin T1 (O60563 whole entry): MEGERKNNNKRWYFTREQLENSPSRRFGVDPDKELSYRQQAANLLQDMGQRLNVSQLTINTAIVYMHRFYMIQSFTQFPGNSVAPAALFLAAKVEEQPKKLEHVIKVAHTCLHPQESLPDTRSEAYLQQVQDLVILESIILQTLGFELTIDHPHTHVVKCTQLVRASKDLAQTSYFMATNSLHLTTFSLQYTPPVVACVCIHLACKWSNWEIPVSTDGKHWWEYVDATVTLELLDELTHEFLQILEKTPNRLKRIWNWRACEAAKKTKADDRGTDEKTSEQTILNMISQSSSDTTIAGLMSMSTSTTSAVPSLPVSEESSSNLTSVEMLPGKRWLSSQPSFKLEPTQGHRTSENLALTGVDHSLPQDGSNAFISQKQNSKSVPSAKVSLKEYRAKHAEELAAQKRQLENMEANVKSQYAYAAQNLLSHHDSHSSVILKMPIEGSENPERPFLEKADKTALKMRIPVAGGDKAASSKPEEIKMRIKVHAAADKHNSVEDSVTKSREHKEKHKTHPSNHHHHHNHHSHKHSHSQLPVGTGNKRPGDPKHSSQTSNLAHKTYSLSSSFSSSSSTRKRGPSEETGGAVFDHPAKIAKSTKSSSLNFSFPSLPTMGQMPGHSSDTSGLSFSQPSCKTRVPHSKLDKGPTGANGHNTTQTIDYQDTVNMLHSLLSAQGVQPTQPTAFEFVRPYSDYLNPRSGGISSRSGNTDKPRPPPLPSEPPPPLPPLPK
Sequence of CDK9/cyclin T1 (P50750 whole entry): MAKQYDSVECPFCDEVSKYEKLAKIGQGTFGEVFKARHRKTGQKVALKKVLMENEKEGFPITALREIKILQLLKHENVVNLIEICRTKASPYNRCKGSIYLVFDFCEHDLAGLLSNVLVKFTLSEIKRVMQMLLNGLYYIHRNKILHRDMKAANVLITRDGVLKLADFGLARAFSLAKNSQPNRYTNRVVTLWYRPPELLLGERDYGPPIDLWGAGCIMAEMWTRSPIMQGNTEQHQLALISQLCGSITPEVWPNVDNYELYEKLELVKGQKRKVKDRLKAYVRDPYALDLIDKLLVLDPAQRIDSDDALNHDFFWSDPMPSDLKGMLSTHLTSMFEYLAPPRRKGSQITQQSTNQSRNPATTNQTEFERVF

CC(=O)N[C@H](CC(N)=O)C(=O)N[C@H](CCC(N)=O)C(=O)N[C@@H](CC(C)C)C(=O)NCC(=O)N[C@@H](Cc1ccccc1)C(=O)N[C@H](CC(C)C)C(=O)N[C@@H](CC(C)C)C(=O)N[C@@H](C)C(=O)N[C@H](C(=O)N[C@@H](CCC(N)=O)C(=O)N[C@H](C(N)=O)[C@@H](C)O)[C@@H](C)O
IC50 [1]: > 0.05 µM | IC50 [2]: > 50 µM

CC(=O)N[C@H](C)C(=O)N[C@@H](C)C(=O)N[C@@H](CC(C)C)C(=O)N[C@@H](C)C(=O)N[C@H](C(=O)N[C@H](CC(C)C)C(=O)NCC(=O)N[C@@H](Cc1ccccc1)C(=O)N[C@H](C)C(=O)N[C@@H](CC(C)C)C(=O)N[C@@H](C)C(N)=O)[C@@H](C)O
IC50 [1]: > 0.05 µM | IC50 [2]: > 50 µM

CC(=O)N[C@H](CC(C)C)C(=O)N[C@@H](C)C(=O)N[C@@H](CC(C)C)C(=O)N[C@@H](CCC(N)=O)C(=O)N[C@H](C(=O)N[C@H](CC(C)C)C(=O)NCC(=O)N[C@@H](Cc1ccccc1)C(=O)N[C@H](CCC(N)=O)C(=O)N[C@@H](CC(C)C)C(=O)N[C@H](C(N)=O)C(C)C)[C@@H](C)O
IC50 [1]: 0.0175 µM | IC50 [2]: 1.67 µM

CC(=O)N[C@H](CC(C)C)C(=O)N[C@@H](C)C(=O)N[C@@H](CC(C)C)C(=O)N[C@@H](CCC(N)=O)C(=O)N[C@H](C(=O)N[C@H](CC(C)C)C(=O)NCC(=O)N[C@@H](Cc1ccccc1)C(=O)N[C@H](CCC(N)=O)C(=O)N[C@@H](CC(C)C)C(=O)N[C@H](C(N)=O)[C@@H](C)O)[C@@H](C)O
IC50 [1]: 0.0105 µM | remaining at 0.25 h, 5 µM [3]: 95.6% | remaining at 0.5 h, 5 µM [4]: 94.2% | Papp A→B at 2 h, 10 µM [5]: 268 nm/s | IC50 [2]: 0.82 µM | Activity [6]: Active

CC(=O)N[C@@H](CC(N)=O)C(=O)N[C@@H](C)C(=O)N[C@@H](CC(C)C)C(=O)N[C@@H](CCC(N)=O)C(=O)N[C@H](C(=O)N[C@H](CC(C)C)C(=O)NCC(=O)N[C@@H](Cc1ccccc1)C(=O)N[C@H](CCC(N)=O)C(=O)N[C@@H](CC(C)C)C(=O)N[C@H](C(N)=O)[C@@H](C)O)[C@@H](C)O
IC50 [1]: 0.0874 µM | IC50 [2]: 9.03 µM

CC(=O)N[C@H](CC(N)=O)C(=O)N[C@@H](C)C(=O)N[C@H](C(=O)N[C@@H](CCC(N)=O)C(=O)N[C@H](C(=O)N[C@H](CC(C)C)C(=O)NCC(=O)N[C@@H](Cc1ccccc1)C(=O)N[C@H](CCC(N)=O)C(=O)N[C@@H](CC(C)C)C(=O)N[C@H](C(N)=O)[C@@H](C)O)[C@@H](C)O)C(C)C
IC50 [1]: 0.0239 µM | IC50 [2]: 2.52 µM

CC(=O)N[C@H](CC(N)=O)C(=O)N[C@@H](C)C(=O)N[C@@H](CC(C)C)C(=O)N[C@@H](CCC(N)=O)C(=O)N[C@H](C(=O)N[C@H](CC(C)C)C(=O)NCC(=O)N[C@@H](Cc1ccccc1)C(=O)N[C@H](C)C(=O)N[C@@H](CC(C)C)C(=O)N[C@H](C(N)=O)[C@@H](C)O)[C@@H](C)O
IC50 [1]: 0.0368 µM | IC50 [2]: 4.05 µM

Nc1n[nH]c(N)c1/N=N/c1ccc(O)cc1
IC50 [2]: 33.1 µM

CC(=O)N[C@H](CC(N)=O)C(=O)N[C@@H](C)C(=O)N[C@@H](CC(C)C)C(=O)N[C@@H](CCC(N)=O)C(=O)N[C@H](C(=O)N[C@H](CC(C)C)C(=O)NCC(=O)N[C@@H](Cc1ccccc1)C(=O)N[C@H](CCC(N)=O)C(=O)N[C@@H](CC(C)C)C(=O)N[C@H](C(N)=O)[C@@H](C)O)[C@@H](C)O
IC50 [1]: 0.00416 µM | remaining at 0.25 h, 5 µM [3]: 98.2% | remaining at 0.5 h, 5 µM [4]: 96.7% | remaining at 6 h, 5 µM [7]: 87% | Papp A→B at 2 h, 10 µM [5]: 298 nm/s | Drug uptake [8]: Active | Drug uptake [9]: Active | IC50 [2]: 0.35 µM | IC50 [10]: 0.41 µM | IC50 [11]: 0.95 µM | IC50 [12]: 0.72 µM | IC50 [13]: 0.81 µM | IC50 [14]: 0.46 µM | IC50 [15]: 0.59 µM | half-life [16]: 4.62 h | Cmax [17]: 2.69 µg/mL | Tmax [18]: 0.49 h | half-life [19]: 5.13 h | half-life [20]: 4.87 h | Cmax [21]: 3.21 µg/mL | Tmax [22]: 0.41 h | Activity [23]: Active | Activity [24]: Active; Compound Showed More Effect | Activity [25]: Toxic | Activity [26]: Toxic | Activity [27]: Toxic | Activity [28]: Toxic | Activity [29]: Toxic | Activity [30]: Toxic | Activity [31]: Toxic | Activity [32]: Toxic | Activity [33]: Toxic | Activity [34]: Toxic | Activity [6]: Active
